Measured values: ChEMBL document CHEMBL1135216, “New 2-(1-adamantylcarbonyl)pyridine and 1-acetyladamantane thiosemicarbazones-thiocarbonohydrazones: cell growth inhibitory, antiviral and antimicrobial activity evaluation” (Bioorg Med Chem Lett, 2002)
≈ marks a conversion by molar mass, not a printed value.

Assays:
CCRF-CEM [1] = assay: Tested for the inhibitory concentration against cell growth of human leukemic cell line CCRF-CEM; type: functional
CCRF-CEM [2] = assay: Tested for the concentration required to reduce the viability of leukemia cells by 50% against cell growth of T cell leukemia cell line CCRF-CEM using MTT assay; type: functional; conditions: Homo sapiens
CCRF-CEM [3] = assay: Tested for the inhibitory concentration against cell growth of Tcell leukemic cell line CCRF-CEM using MTT assay; type: functional; conditions: Homo sapiens
E6SM [4] = assay: Tested for antiviral activity against VSV-virus in human embryonic skin muscle fibroblasts; type: functional; conditions: Muscle tissue
E6SM [5] = assay: Tested for antiviral activity against herpes simplex virus type 1(KOS) in E6SM cell line(human embryonic skin-muscle fibroblasts); type: functional
E6SM [6] = assay: Tested for antiviral activity against thymidine kinase-deficient (TK-HSV-2G) virus in E6SM cell line(human embryonic skin-muscle fibroblasts); type: functional
E6SM [7] = assay: Tested for antiviral activity against vaccinia virus in human embryonic skin muscle fibroblast; type: functional; conditions: Muscle tissue
HeLa [8] = assay: The compound was tested for antiviral activity against VSV-virus in human epithelial cells; type: functional
E6SM [9] = assay: Tested for cytotoxic activity in human embryonic skin muscle fibroblast (E6SM); type: functional; conditions: Muscle tissue
E6SM [10] = assay: Antiviral activity against thymidine kinase-deficient (TK-HSV-1)virus in E6SM cell line(human embryonic skin-muscle fibroblasts); type: functional
Escherichia coli = assay: Tested for the antimicrobial activity against Escherichia coli ATCC 25922; type: functional
HEL [11] = assay: Tested for cytotoxic activity in human embryonic lung fibroblast (HEL); type: functional
HEL [12] = assay: Tested for antiviral activity against human cytomegalovirus (AD-169) in human embryonic lung fibroblasts; type: functional
HEL [13] = assay: Tested for antiviral activity against thymidine kinase deficient Varicella zoster virus in human embryonic lung fibroblasts; type: functional
HEL [14] = assay: Tested for antiviral activity against thymidine kinase wild type Varicella zoster virus in human embryonic lung fibroblast; type: functional
HeLa [15] = assay: Tested for antiviral activity against coxsackie-B4 virus in human epithelial cell line; type: functional
HL-60 [16] = assay: Tested for the inhibitory concentration against cell growth of human leukemic cell line HL60; type: functional
HL-60 [17] = assay: Tested for the concentration required to reduce the viability of leukemia cells by 50% against cell growth of HL60 acute myeloid leukemia using MTT assay; type: functional; conditions: Homo sapiens, read-out: LC50 (the source's name)
HL-60 [18] = assay: Tested for the inhibitory concentration against cell growth of HL60 acute myeloid leukemia using MTT assay; type: functional; conditions: Homo sapiens
HeLa [19] = assay: Tested for cytotoxic activity in human epithelial cell line (HeLa); type: functional
HuT78 [20] = assay: Tested for the inhibitory concentration against cell growth of human leukemic cell line HuT78; type: functional
HuT78 [21] = assay: Tested for the concentration required to reduce the viability of leukemia cells by 50% against cell growth of HuT78 T lymphoma using MTT assay; type: functional; conditions: Homo sapiens
HuT78 [22] = assay: Tested for the inhibitory concentration against cell growth of HuT78 T lymphoma using MTT assay; type: functional; conditions: Homo sapiens
K562 [23] = assay: Tested for the concentration required to reduce the viability of leukemia cells by 50% against cell growth of K562 chronic myeloid leukemia using MTT assay; type: functional; conditions: Homo sapiens, read-out: LC50 (the source's name)
K562 [24] = assay: Tested for the inhibitory concentration against cell growth of K562 chronic myeloid leukemia using MTT assay; type: functional; conditions: Homo sapiens
K562 [25] = assay: Tested for the inhibitory concentration against cell growth of human leukemic cell line K562; type: functional
Klebsiella pneumoniae = assay: Tested for the antimicrobial activity against Klebsiella pneumoniae ATCC 13883; type: functional
MOLT-4 [26] = assay: Tested for the inhibitory concentration against cell growth of human leukemic cell line MOLT-4; type: functional
MT4 [27] = assay: Tested for effective concentration required to protect MT-4 cells against the cytopathicity of HIV-1(IIIB); type: functional; conditions: Homo sapiens, read-out: LC50 (the source's name)
MT4 [28] = assay: Tested for effective concentration required to protect MT-4 cells against the cytopathicity of HIV-2(ROD); type: functional, cell-based; conditions: Homo sapiens
MOLT-4 [29] = assay: Tested for the concentration required to reduce the viability of leukemia cells by 50% against cell growth of T cell leukemia cell line MOLT-4 using MTT assay; type: functional; conditions: Homo sapiens
MOLT-4 [30] = assay: Tested for the inhibitory concentration against cell growth of Tcell leukemic cell line MOLT-4 using MTT assay; type: functional; conditions: Homo sapiens
RPMI-8226 [31] = assay: Tested for the inhibitory concentration against cell growth of human leukemic cell line RPMI8226; type: functional
RPMI-8226 [32] = assay: Tested for the concentration required to reduce the viability of leukemia cells by 50% against cell growth of RPMI8226 multiple myeloma using MTT assay; type: functional; conditions: Homo sapiens, read-out: LC50 (the source's name)
RPMI-8226 [33] = assay: Tested for the inhibitory concentration against cell growth of […] multiple myeloma using MTT assay; type: functional; conditions: Homo sapiens
Staphylococcus aureus = assay: Tested for the antimicrobial activity against Staphylococcus aureus ATCC 6538; type: functional
[34] = system: Staphylococcus epidermidis; assay: Tested for the antimicrobial activity against Staphylococcus epidermidis ATCC 12228; type: functional
Staphylococcus hominis = assay: Tested for the antimicrobial activity against Staphylococcus hominis ATCC 27844; type: functional
Vero [35] = assay: Tested for cytotoxic activity in African green monkey kidney cells (Vero); type: functional; conditions: Chlorocebus sabaeus
Vero [36] = assay: Tested for antiviral activity against Punta toro virus in African green monkey kidney cell (Vero); type: functional; conditions: Chlorocebus sabaeus
Vero [37] = assay: Tested for antiviral activity against Reo-1 virus in African green monkey kidney cell (Vero); type: functional; conditions: Chlorocebus sabaeus
Vero [38] = assay: Tested for antiviral activity against Sindbis virus in African green monkey kidney cell (Vero); type: functional; conditions: Chlorocebus sabaeus
Vero [39] = assay: Tested for antiviral activity against coxsackie B-4 virus in African green monkey kidney cell (Vero); type: functional; conditions: Chlorocebus sabaeus
Vero [40] = assay: Tested for antiviral activity against parainfluenza virus in african green monkey kidney cell (Vero); type: functional; conditions: Chlorocebus sabaeus
MT4 [41] = assay: Tested for cytotoxic concentration required to reduce the viability of MT-4 cells by 50%; type: functional, cell-based; conditions: Homo sapiens, read-out: EC50 (the source's name)
E6SM [42] = assay: The compound was tested for antiviral activity against thymidine kinase-deficient (TK-HSV-1)virus in E6SM cell line(human embryonic skin-muscle fibroblasts); type: functional

With C/C(=N/N=C(/S)N/N=C(\S)c1ccc(Cl)cc1Cl)C12CC3CC(CC(C3)C1)C2 the GI50 (CCRF-CEM [1]) was 5.7 µM, the TGI (CCRF-CEM [2]) was 100 µM and the TGI (CCRF-CEM [3]) was 100 µM. The MIC (E6SM [4]) was greater than 16 µg/mL, the MIC (E6SM [5]) was greater than 16 µg/mL and the MIC (E6SM [6]) was 9.6 µg/mL (≈ 21.1 µM). For the same molecule, the MIC (E6SM [7]) was greater than 16 µg/mL, the MIC (HeLa [8]) was greater than 3.2 µg/mL and the MCC (E6SM [9]) was 80 µg/mL. The MIC (E6SM [10]) was 9.6 µg/mL (≈ 21.1 µM), the MIC (Escherichia coli) was greater than 2130 µg/mL and the MCC (HEL [11]) was 5 µg/mL. It also gave an MIC (HEL [12]) greater than 2 µg/mL, an MIC (HEL [13]) greater than 2 µg/mL and an MIC (HEL [14]) greater than 2 µg/mL. For the same molecule, the MIC (HeLa [15]) was greater than 3.2 µg/mL, the GI50 (HL-60 [16]) was 2.4 µM and the CC50 (HL-60 [17]) was 10 µM. It also gave a TGI (HL-60 [18]) of 6.2 µM, an MCC (HeLa [19]) of 16 µg/mL and a GI50 (HuT78 [20]) of 8.1 µM. It also gave a TGI (HuT78 [21]) of 100 µM, a TGI (HuT78 [22]) of 100 µM and a CC50 (K562 [23]) of 100 µM. For the same molecule, the TGI (K562 [24]) was 100 µM, the GI50 (K562 [25]) was 24.7 µM and the MIC (Klebsiella pneumoniae) was greater than 2130 µg/mL. It also gave a GI50 (MOLT-4 [26]) of 32.4 µM, an EC50 (MT4 [27]) greater than 2 µM and an EC50 (MT4 [28]) greater than 2 µM. For the same molecule, the TGI (MOLT-4 [29]) was 100 µM, the TGI (MOLT-4 [30]) was 100 µM and the GI50 (RPMI-8226 [31]) was 3.6 µM. The CC50 (RPMI-8226 [32]) was 100 µM, the TGI (RPMI-8226 [33]) was 29.3 µM and the MIC (Staphylococcus aureus) was 133 µg/mL (≈ 292 µM). For the same molecule, the MIC [34] was 133 µg/mL (≈ 292 µM), the MIC (Staphylococcus hominis) was 133 µg/mL (≈ 292 µM) and the MCC (Vero [35]) was 16 µg/mL. For the same molecule, the MIC (Vero [36]) was greater than 3.2 µg/mL, the MIC (Vero [37]) was greater than 3.2 µg/mL and the MIC (Vero [38]) was greater than 3.2 µg/mL. The MIC (Vero [39]) was greater than 3.2 µg/mL, the MIC (Vero [40]) was greater than 3.2 µg/mL and the CC50 (MT4 [41]) was 2.4 µM.
With O=c1[nH]c(=O)n([C@H]2C[C@H](O)[C@@H](CO)O2)cc1/C=C/Br [BRIVUDINE] the MIC (E6SM [4]) was greater than 400 µg/mL, the MIC (E6SM [5]) was 0.05 µg/mL (≈ 0.15 µM) and the MIC (E6SM [6]) was 80 µg/mL (≈ 240 µM). It also gave an MIC (E6SM [7]) of 3.2 µg/mL (≈ 9.61 µM), an MIC (HeLa [8]) greater than 400 µg/mL and an MIC (E6SM [42]) of 400 µg/mL (≈ 1200 µM). It also gave an MCC (E6SM [9]) greater than 400 µg/mL, an MCC (HEL [11]) greater than 50 µg/mL and an MIC (HEL [13]) greater than 50 µg/mL. It also gave an MIC (HEL [14]) of 0.009 µg/mL (≈ 0.027 µM), an MIC (HeLa [15]) greater than 400 µg/mL and an MCC (HeLa [19]) greater than 400 µg/mL. The MCC (Vero [35]) was greater than 400 µg/mL, the MIC (Vero [36]) was greater than 400 µg/mL and the MIC (Vero [37]) was greater than 400 µg/mL. It also gave an MIC (Vero [38]) greater than 400 µg/mL, an MIC (Vero [39]) greater than 400 µg/mL and an MIC (Vero [40]) greater than 400 µg/mL.
